How the values were obtained:
Assay type in all cases: toxicity, cell-based
HEK-293T = assay: Incucyte cell viability with HEK293T; conditions: human, 10 µM, compound concentration 10 uM
Fibroblast = assay: Incucyte cell viability with human fibroblast; conditions: 10 µM, compound concentration 10 uM
U2OS = assay: Incucyte cell viability with U2OS; conditions: human, 10 µM, compound concentration 10 uM
Further: unitless GR value; below 1 slowed growth and below 0 cell loss.

Structure (SMILES) | Growth Rate (HEK-293T; 0 h, replicate number 1) | Growth Rate (HEK-293T; 6 h, replicate number 2) | Growth Rate (HEK-293T; 12 h, replicate number 2) | Growth Rate (HEK-293T; 18 h, replicate number 2) | Growth Rate (HEK-293T; 24 h, replicate number 2) | Growth Rate (U2OS; 18 h, replicate number 2) | Growth Rate (U2OS; 24 h, replicate number 2) | Growth Rate (HEK-293T; 6 h, replicate number 1) | Growth Rate (HEK-293T; 12 h, replicate number 1) | Growth Rate (HEK-293T; 18 h, replicate number 1) | Growth Rate (HEK-293T; 24 h, replicate number 1) | Growth Rate (Fibroblast; 6 h, replicate number 1) | Growth Rate (Fibroblast; 6 h, replicate number 2) | Growth Rate (Fibroblast; 12 h, replicate number 1) | Growth Rate (Fibroblast; 12 h, replicate number 2) | Growth Rate (Fibroblast; 18 h, replicate number 1) | Growth Rate (U2OS; 12 h, replicate number 1) | Growth Rate (U2OS; 12 h, replicate number 2) | Growth Rate (U2OS; 18 h, replicate number 1) | Growth Rate (U2OS; 24 h, replicate number 1) | further results
Fc1ccc(-c2nc(-c3c(F)cccc3F)[nH]c2-c2ccncc2)cc1 | -0.47 | 0.27 | 0.5 | 0.62 | 0.68 | 0.97 | 0.76 | – | – | – | – | – | – | – | – | – | – | – | – | – | Growth Rate (HEK-293T; 0 h, replicate number 2): 0.65; Growth Rate (Fibroblast; 0 h, replicate number 1): -0.99; Growth Rate (Fibroblast; 0 h, replicate number 2): 0.29; Growth Rate (U2OS; 0 h, replicate number 1): -1
C=CC(=O)Nc1cc(-c2nn(C3CCC(N4CCN(C(C)=O)CC4)CC3)c3ncnc(N)c23)ccc1Oc1ccccc1 (configuration not stated) | – | -0.92 | -0.56 | -0.22 | 0.09 | -0.48 | -0.41 | -0.71 | -0.48 | -0.4 | -0.31 | -0.52 | -0.24 | -0.15 | 0.07 | 0.03 | -0.62 | -0.57 | -0.59 | -0.59 | Growth Rate (Fibroblast; 18 h, replicate number 2): 0.33; Growth Rate (Fibroblast; 24 h, replicate number 1): 0.21; Growth Rate (Fibroblast; 24 h, replicate number 2): 0.67; Growth Rate (U2OS; 0 h, replicate number 2): -0.83; Growth Rate (U2OS; 6 h, replicate number 1): -0.85; Growth Rate (U2OS; 6 h, replicate number 2): -0.6
Cn1c(C2(NC(=O)c3ccc4c(C5CCCC5)c(-c5ncc(Br)cn5)n(C)c4c3)CCC2)nc2ccc(/C=C/C(=O)O)cc21 [DELEOBUVIR] | – | 0.72 | 0.88 | 0.88 | 0.85 | – | 0.88 | – | – | 0.92 | 0.91 | – | – | – | – | 0.98 | 0.44 | 0.92 | 0.49 | 0.7 | Growth Rate (Fibroblast; 0 h, replicate number 1): -1; Growth Rate (Fibroblast; 24 h, replicate number 1): 0.85; Growth Rate (U2OS; 6 h, replicate number 1): 0.31; Growth Rate (U2OS; 6 h, replicate number 2): 0.75
CO[C@H]1C[C@@H]2CC[C@@H](C)[C@@](O)(O2)C(=O)C(=O)N2CCCC[C@H]2C(=O)O[C@H]([C@H](C)C[C@@H]2CC[C@@H](O)[C@H](OC)C2)CC(=O)[C@H](C)/C=C(\C)[C@@H](O)[C@@H](OC)C(=O)[C@H](C)C[C@H](C)/C=C/C=C/C=C/1C [SIROLIMUS] | -0.78 | 0.36 | 0.13 | 0.23 | 0.3 | – | – | -0.13 | -0.06 | 0.16 | 0.26 | 0.43 | – | 0.47 | 0.93 | 0.23 | 0.93 | 0.81 | – | 0.94 | Growth Rate (HEK-293T; 0 h, replicate number 2): -0.17; Growth Rate (Fibroblast; 18 h, replicate number 2): 0.97; Growth Rate (Fibroblast; 24 h, replicate number 1): 0.35; Growth Rate (Fibroblast; 24 h, replicate number 2): 0.84; Growth Rate (U2OS; 0 h, replicate number 2): 0.94
O=c1[nH]c(CS[C@H]2CC[C@H](O)CC2)nc2cc(OCC3CC3)cc(F)c12 | 0.63 | – | – | 1 | 0.94 | 0.66 | 0.64 | – | – | – | 0.87 | – | 0.65 | – | 0.67 | – | 0.45 | 0.73 | 0.92 | 0.98 | Growth Rate (Fibroblast; 0 h, replicate number 2): 0.47; Growth Rate (U2OS; 0 h, replicate number 1): -0.28; Growth Rate (U2OS; 0 h, replicate number 2): 0.9; Growth Rate (U2OS; 6 h, replicate number 1): 0.81; Growth Rate (U2OS; 6 h, replicate number 2): 0.82
CC(=O)Nc1nc(CN2CCC[C@H](Cc3cc(C)nc(C)c3)C2)cs1 [JNJ-73924149] | – | 0.53 | – | 0.95 | 0.95 | – | 0.91 | 0.52 | 0.71 | 0.81 | 0.82 | 0.58 | 0.73 | 0.89 | 0.74 | 0.87 | – | 0.87 | 0.89 | – | Growth Rate (Fibroblast; 18 h, replicate number 2): 0.72; Growth Rate (Fibroblast; 24 h, replicate number 2): 0.79
